In this assay the test system is BDF1 mice, colon carcinoma 38 sc, T/C %. Nature of the assay: NCI In Vivo Anticancer Drug Screen. Data for tumor model Colon Carcinoma 38 (subcutaneous) in B6D2F1 (BDF1) mice. The gist of the method:
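Ratio of survival or tumor size, compound-treated animals relative to vehicle controls, in tumor-bearing mice.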

The mark [1] stands for this setting: endpoint: median tumor weight (est.), dose: 12.5 mg/kg/injection, schedule: Q07DX002 (ip), vehicle: Klucel (hydroxypropylcellulose) (HPC), higher = larger tumour.
The mark [2] stands for this setting: endpoint: median tumor weight (est.), dose: 25.0 mg/kg/injection, schedule: Q07DX002 (ip), vehicle: Klucel (hydroxypropylcellulose) (HPC), higher = larger tumour.
The mark [3] stands for this setting: endpoint: median tumor weight (est.), dose: 200.0 mg/kg/injection, schedule: Q07DX002 (ip), vehicle: Klucel (hydroxypropylcellulose) (HPC), higher = larger tumour.
Where [4] appears, read: endpoint: median tumor weight (est.), dose: 50.0 mg/kg/injection, schedule: Q07DX002 (ip), vehicle: Klucel (hydroxypropylcellulose) (HPC), higher = larger tumour.
Where [5] appears, read: endpoint: median tumor weight (est.), dose: 100.0 mg/kg/injection, schedule: Q07DX002 (ip), vehicle: Klucel (hydroxypropylcellulose) (HPC), higher = larger tumour.
The mark [6] stands for this setting: endpoint: median tumor weight (est.), dose: 6.25 mg/kg/injection, schedule: Q07DX002 (ip), vehicle: saline with Tween-80, higher = larger tumour.
Where [7] appears, read: endpoint: median tumor weight (est.), dose: 6.25 mg/kg/injection, schedule: Q07DX002 (ip), vehicle: saline, higher = larger tumour.
The mark [8] stands for this setting: endpoint: median tumor weight (est.), dose: 25.0 mg/kg/injection, schedule: Q07DX002 (ip), vehicle: saline with Tween-80, higher = larger tumour.
Setting [9] is: endpoint: median tumor weight (est.), dose: 25.0 mg/kg/injection, schedule: Q07DX002 (ip), vehicle: saline, higher = larger tumour.
The mark [10] stands for this setting: endpoint: median tumor weight (est.), dose: 50.0 mg/kg/injection, schedule: Q07DX002 (ip), vehicle: saline with Tween-80, higher = larger tumour.
Where [11] appears, read: endpoint: median tumor weight (est.), dose: 100.0 mg/kg/injection, schedule: Q07DX002 (ip), vehicle: saline with Tween-80, higher = larger tumour.
[12] abbreviates: endpoint: median tumor weight (est.), dose: 12.5 mg/kg/injection, schedule: Q07DX002 (ip), vehicle: saline with Tween-80, higher = larger tumour.
Where [13] appears, read: endpoint: median tumor weight (est.), dose: 200.0 mg/kg/injection, schedule: Q07DX002 (ip), vehicle: saline with Tween-80, higher = larger tumour.

The structures appear in SMILES notation. “And” between values parts separate entries of the source, which are not always exact repeats. Identical values can stand only once. Results filed as inconclusive are left out.

With `COc1cc2c3c(cccc3c1)C(=O)N(CCN(C)C)C2=O`, the T/C was 86 % of control and 103 % of control (endpoint: median tumor weight (est.), dose: 10.0 mg/kg/injection, schedule: Q07DX002 (ip), vehicle: saline with Tween-80, higher = larger tumour); 73 % of control and 92 % of control (endpoint: median tumor weight (est.), dose: 40.0 mg/kg/injection, schedule: Q07DX002 (ip), vehicle: saline with Tween-80, higher = larger tumour); 72 % of control (endpoint: median tumor weight (est.), dose: 80.0 mg/kg/injection, schedule: Q07DX002 (ip), vehicle: saline with Tween-80, higher = larger tumour); 73 % of control (endpoint: median tumor weight (est.), dose: 160.0 mg/kg/injection, schedule: Q07DX002 (ip), vehicle: saline with Tween-80, higher = larger tumour).
Turning to `CCCCc1ccc(-n2c(C)c(COC(=O)NC)c(COC(=O)NC)c2C)cc1`, the T/C by setting is: under setting [1], 88 % of control; under setting [2], 66 % of control; under setting [3], 60 % of control.
As for `COC1C(CO)OC(n2cnc3c(=S)nc(N)[nH]c32)C1O` (configuration not stated), the T/C by setting is: under setting [1], 98 % of control; under setting [2], 74 % of control; under setting [4], 44 % of control; under setting [5], 118 % of control; under setting [3], 69 % of control; (endpoint: median tumor weight (est.), dose: 400.0 mg/kg/injection, schedule: Q07DX002 (ip), vehicle: Klucel (hydroxypropylcellulose) (HPC), higher = larger tumour) 44 % of control.
As to `CN1CCN(CCCN2c3ccccc3Sc3ccc(C(F)(F)F)cc32)CC1`, the T/C under setting [6] was 104 % of control; the T/C under setting [7] was 116 % of control; the T/C (endpoint: median tumor weight (est.), dose: 12.5 mg/kg/injection, schedule: Q07DX002 (ip), vehicle: saline, higher = larger tumour) was 112 % of control; the T/C under setting [8] was 91 % of control; the T/C under setting [9] is 97 % of control; the T/C under setting [10] was 96 % of control. The T/C (endpoint: median tumor weight (est.), dose: 50.0 mg/kg/injection, schedule: Q07DX002 (ip), vehicle: saline, higher = larger tumour) is 90 % of control; the T/C (endpoint: median tumor weight (est.), dose: 100.0 mg/kg/injection, schedule: Q07DX002 (ip), vehicle: saline, higher = larger tumour) was 96 % of control; the T/C (endpoint: median tumor weight (est.), dose: 200.0 mg/kg/injection, schedule: Q07DX002 (ip), vehicle: saline, higher = larger tumour) is 74 % of control.
With `COc1ccc2c(c1)CCC(c1ccccc1)=C2c1ccc(OCCN2CCCC2)cc1`, the T/C by setting is: under setting [1], 68 % of control and 85 % of control; under setting [2], 83 % of control and 87 % of control; under setting [4], 70 % of control; under setting [5], 77 % of control and 79 % of control; under setting [3], 100 % of control.
For `COc1cc([C@@H]2c3cc4c(c(O)c3C[C@H]3COC(=O)[C@@H]32)OCO4)cc(OC)c1OC`, the T/C by setting is: (endpoint: median tumor weight (est.), dose: 1.0 mg/kg/injection, schedule: Q07DX002 (ip), vehicle: saline, higher = larger tumour) 81 % of control; (endpoint: median tumor weight (est.), dose: 2.0 mg/kg/injection, schedule: Q07DX002 (ip), vehicle: saline, higher = larger tumour) 67 % of control; (endpoint: median tumor weight (est.), dose: 4.0 mg/kg/injection, schedule: Q07DX002 (ip), vehicle: saline, higher = larger tumour) 76 % of control; (endpoint: median tumor weight (est.), dose: 8.0 mg/kg/injection, schedule: Q07DX002 (ip), vehicle: saline, higher = larger tumour) 73 % of control; (endpoint: median tumor weight (est.), dose: 16.0 mg/kg/injection, schedule: Q07DX002 (ip), vehicle: saline, higher = larger tumour) 70 % of control.
Turning to `CCN(CC)CCOC(=O)Cc1cccc2c(=O)cc(-c3ccccc3)oc12`, the T/C is 110 % of control (endpoint: median survival time, dose: 133.0 mg/kg/injection, schedule: Q07DX002 (ip), vehicle: saline, higher = longer survival); 313 % of control (endpoint: median survival time, dose: 200.0 mg/kg/injection, schedule: Q07DX002 (ip), vehicle: saline, higher = longer survival); 92 % of control (endpoint: median tumor weight (est.), dose: 3.12 mg/kg/injection, schedule: Q07DX002 (iv), vehicle: saline, higher = larger tumour); 74 % of control under setting [7]; 88 % of control (endpoint: median tumor weight (est.), dose: 6.25 mg/kg/injection, schedule: Q07DX002 (iv), vehicle: saline, higher = larger tumour); 109 % of control (endpoint: median tumor weight (est.), dose: 12.5 mg/kg/injection, schedule: Q07DX002 (iv), vehicle: saline, higher = larger tumour). The T/C (endpoint: median tumor weight (est.), dose: 25.0 mg/kg/injection, schedule: Q07DX002 (iv), vehicle: saline, higher = larger tumour) was 46 % of control; the T/C (endpoint: median tumor weight (est.), dose: 28.0 mg/kg/injection, schedule: Q07DX002 (iv), vehicle: saline, higher = larger tumour) is 122 % of control; the T/C (endpoint: median tumor weight (est.), dose: 37.5 mg/kg/injection, schedule: Q07DX002 (iv), vehicle: saline, higher = larger tumour) is 110 % of control; the T/C under setting [4] was 61 % of control; the T/C under setting [10] was 45 % of control; the T/C (endpoint: median tumor weight (est.), dose: 50.0 mg/kg/injection, schedule: Q07DX009 (ip), vehicle: saline, higher = larger tumour) was 84 % of control. The T/C by setting is: under setting [11], 61 % of control; (endpoint: median tumor weight (est.), dose: 100.0 mg/kg/injection, schedule: Q07DX009 (ip), vehicle: saline, higher = larger tumour) 40 % of control; (endpoint: median tumor weight (est.), dose: 112.0 mg/kg/injection, schedule: Q07DX002 (ip), vehicle: saline, higher = larger tumour) 105 % of control; (endpoint: median tumor weight (est.), dose: 150.0 mg/kg/injection, schedule: Q07DX002 (ip), vehicle: saline, higher = larger tumour) 89 % of control.
As to `Clc1cc(Cl)c(C[N+]23CN4CN(CN(C4)C2)C3)cc1Cl`, the T/C is, setting by setting: under setting [12], 80 % of control and 90 % of control; under setting [8], 118 % of control.
As for `Cc1ccc(NC(=O)Oc2ccc(Br)cc2Br)c([N+](=O)[O-])c1`, the T/C reads like this: under setting [8], 111 % of control and 102 % of control; under setting [10], 51 % of control and 62 % of control; under setting [11], 86 % of control and 94 % of control; under setting [13], 65 % of control and 79 % of control.
Consider `C=C(C)[C@@H]1CC[C@@H]2C(=CC[C@]3(C)C([C@H](C)CC/C=C(/C)C(=O)O)CC[C@@]23C)[C@@]1(C)CCC(=O)O` (some centres not stated), for which the T/C by setting is: (endpoint: median tumor weight (est.), dose: 50.0 mg/kg/injection, schedule: Q07DX002 (ip), vehicle: saline + alcohol, higher = larger tumour) 90 % of control; (endpoint: median tumor weight (est.), dose: 100.0 mg/kg/injection, schedule: Q07DX002 (ip), vehicle: saline + alcohol, higher = larger tumour) 91 % of control; (endpoint: median tumor weight (est.), dose: 200.0 mg/kg/injection, schedule: Q07DX002 (ip), vehicle: saline + alcohol, higher = larger tumour) 105 % of control; (endpoint: median tumor weight (est.), dose: 400.0 mg/kg/injection, schedule: Q07DX002 (ip), vehicle: saline + alcohol, higher = larger tumour) 45 % of control.
For `CCOC(=O)/N=[N+](\[O-])c1ccccc1`, the T/C under setting [6] was 49 % of control and the T/C under setting [12] was 71 % of control.
On to `COC1C(OC(=O)/C=C/C=C/C=C/C=C/C(=O)O)CCC2(CO2)C1C1(C)OC1CC=C(C)C` (configuration not stated), for which the T/C is 101 % of control (endpoint: median tumor weight (est.), dose: 25.0 mg/kg/injection, schedule: Q07DX002 (ip), vehicle: suspension in saline, higher = larger tumour); 208 % of control (endpoint: median tumor weight (est.), dose: 50.0 mg/kg/injection, schedule: Q07DX002 (ip), vehicle: suspension in saline, higher = larger tumour); 115 % of control (endpoint: median tumor weight (est.), dose: 200.0 mg/kg/injection, schedule: Q07DX002 (ip), vehicle: suspension in saline, higher = larger tumour).
As for `CC(=O)Nc1ccc(C(=O)C=O)cc1`, the T/C was 62 % of control and 78 % of control under setting [12]; 87 % of control and 100 % of control under setting [8]; 92 % of control under setting [13].
Regarding `C/C=C/c1cc2n(c1)C(=O)c1cc(OC3OC(C)C(NC)C(C)(O)C3O)c(C)c(O)c1NC2O` (configuration not stated), the T/C (endpoint: median tumor weight (est.), dose: 32.0 micrograms/kg/injection, schedule: Q07DX002 (ip), vehicle: saline, higher = larger tumour) was 42 % of control.
In the case of `OCC12COCN1COC2`, the T/C by setting is: under setting [9], 82 % of control and 86 % of control; (endpoint: median tumor weight (est.), dose: 400.0 mg/kg/injection, schedule: Q07DX002 (ip), vehicle: saline, higher = larger tumour) 85 % of control and 97 % of control; (endpoint: median tumor weight (est.), dose: 800.0 mg/kg/injection, schedule: Q07DX002 (ip), vehicle: saline, higher = larger tumour) 91 % of control.
Consider `CCOC(=O)c1c[nH]c2oc(/C=N/N3CC(CN4CCOCC4)OC3=O)cc2c1=O` (configuration not stated), for which the T/C reads like this: (endpoint: median tumor weight (est.), dose: 25.0 mg/kg/injection, schedule: Q07DX003 (ip), vehicle: saline, higher = larger tumour) 116 % of control and 120 % of control; (endpoint: median tumor weight (est.), dose: 100.0 mg/kg/injection, schedule: Q07DX003 (ip), vehicle: saline, higher = larger tumour) 93 % of control and 102 % of control; (endpoint: median tumor weight (est.), dose: 150.0 mg/kg/injection, schedule: Q07DX002 (ip), vehicle: other, higher = larger tumour) 92 % of control; (endpoint: median tumor weight (est.), dose: 200.0 mg/kg/injection, schedule: Q07DX003 (ip), vehicle: saline, higher = larger tumour) 108 % of control and 106 % of control; (endpoint: median tumor weight (est.), dose: 300.0 mg/kg/injection, schedule: Q07DX002 (ip), vehicle: other, higher = larger tumour) 59 % of control; (endpoint: median tumor weight (est.), dose: 600.0 mg/kg/injection, schedule: Q07DX002 (ip), vehicle: other, higher = larger tumour) 59 % of control. Also, the T/C (endpoint: median tumor weight (est.), dose: 900.0 mg/kg/injection, schedule: Q07DX002 (ip), vehicle: other, higher = larger tumour) was 34 % of control.

For the origin of these results see PubChem BioAssay AID212 (DTP/NCI, 2004).
